Experimental data published in the supplement of paper PMC10949913.
Values joined by “and” are separate entries in the source; they are usually repeats but may differ in a detail not shown here. Identical values can stand only once.

Test system: NCI-H295R
Assay: area under concentration-response curve (viability) (AUC (a.u.)); higher = less active
Conditions: 48 h
How it was run: (§1)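 Concentration-response curves were fitted to obtain AC50 and area under the curve, keeping inhibitory or non-responding curve classes only. Data came from CellTiter-Glo luminescence, normalised per plate to vehicle and empty-well controls, in three adrenocortical carcinoma cell lines. These were treated in 1,536-well plates with library compounds at 11 concentrations and read after 48 h.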

SMILES	area under concentration-response curve
CCOC(=O)C(C#N)C\1C2=CC(=CC=C2O\C(=C1C(=O)OCC)N)Br (centres undefined)	569
O=P1(NCCCl)OCCCN1CCCl (centres undefined)	553
CCC[S+](=O)([O-])Nc1ccc(F)c(C(=O)c2c[nH]c3ncc(-c4ccc(Cl)cc4)cc23)c1F	556
COc1ncc(-c2ccc3c(Nc4cc(Oc5cc(F)cc(F)c5)cc(C(=O)O)c4)c([S+](=O)([O-])NC4CC4)cnc3c2)c(OC)n1	516
N[S+](=O)([O-])c1ccc(Nc2nc(OCC3CCCCC3)c3[nH]cnc3n2)cc1	554
OC[C@H]1O[C@@H](Oc2cc(O)cc(/C=C/c3ccc(O)cc3)c2)[C@H](O)[C@@H](O)[C@@H]1O	579
CC(C)(O)c1coc([S+](=O)([O-])NC(=O)Nc2c3c(cc4c2CCC4)CCC3)c1	555
CCc1cc(C(N)=S)ccn1	552
CCCN(CCC)C(=O)C\1=C\C2=CC=C(C=C2\N=C(N)/C1)C3=CC=C(C=C3)C(=O)N4CCCC4	581
OC1=CC=C(C=C1)\C2=C\OC3=C(C=CC(=C3)O)C2=O	565
COc1ccc(N(C(=O)Oc2c(C)cccc2C)c2ccnc(Nc3ccc(N4CCN(C)CC4)cc3)n2)c(OC)c1	545
O=C(CCc1ccc(O)cc1)c1c(O)cc(O)cc1O[C@@H]1O[C@H](CO)[C@@H](O)[C@H](O)[C@H]1O	242
NC(=O)c1ncn([C@@H]2O[C@H](CO)[C@@H](O)[C@H]2O)c1O	401 and 302
O=c1[nH]c2ccccc2n1CCCN1CCC(n2c(=O)[nH]c3cc(Cl)ccc32)CC1	539
C[C@@H]1C(=O)O[C@H]2CC34[C@H]5C[C@@H](C(C)(C)C)C36[C@@H](OC(=O)[C@@H]6O)O[C@@]4(C(=O)O5)[C@]21O (some centres undefined)	21.9
OC[C@H]1O[C@H]([C@H](O)[C@@H](O)[C@@H]1O)C2=C(O)C=CC3=C2O/C=C(C3=O)/C4=CC=C(O)C=C4	540
CCCN[C@H]1CCc2nc(N)sc2C1	566
C=CC(=O)N1CCC[C@@H](n2nc(-c3ccc(Oc4ccccc4)cc3)c3c(N)ncnc32)C1	459
O=C(O)CCCCCC(=O)NN=C1CCCC1	548
OC1=CC=C(C=C1)\C2=C\C(=O)C3=C(O2)C=C(O)C=C3O	389

SMILES	area under concentration-response curve
CN(C)CCNC(=O)COc1c2cccc1Cc1cccc(c1OCC(=O)NCCN(C)C)Cc1cccc(c1OCC(=O)NCCN(C)C)Cc1cccc(c1OCC(=O)NCCN(C)C)C2	485
CC1OC(OC/2=C(/OC3=C(C(=CC(=C3)O)O)C2=O)C4=CC=C(O)C=C4)C(O)C(OC(C)=O)C1OC(C)=O (centres undefined)	289
CCN(CCO)CCCC(C)Nc1ccnc2cc(Cl)ccc12 (centres undefined)	368
O=C(O)c1ccc(-c2c[nH]c3ncc(-c4ccccc4)cc23)cc1C1CCCC1	501
Cc1c(C)n(Cc2ccc(-c3ccccc3C(=O)O)cc2)c2ccc(C(=O)N[C@@H](C)c3ccc([N+](=O)[O-])cc3)cc12	402
Clc1ccc(Nc2nnc(Cc3ccncc3)c3ccccc23)cc1	295
CCN1CCN(C(=O)N[C@@H](C(=O)N[C@H]2[C@H]3SC\C(=C(/N3C2=O)C(O)=O)CSC4=NN=N[N]4C)C5=CC=C(O)C=C5)C(=O)C1=O	269
CNCc1ccc(-c2cc(-c3nc(-c4ccc([S+](=O)([O-])C(C)C)cc4)cnc3N)on2)cc1	413
CC\12CCC(=O)\C=C1CCC3C2CCC4(C)C3CCC4(O)C#C (centres undefined)	440
CN1\N=N/C2=C(N=C[N]2C1=O)C(N)=O	581
COc1ccc(-c2cnc3c(-c4cccc5ncccc45)cnn3c2)cc1	595
O=C(O)CCCc1c[nH]c2ccccc12	400
CC(C)[S+](=O)([O-])c1ccc2nccc(Nc3ccc4scnc4c3)c2c1	491
CN(C)Cc1cccc(N/C(=C2\C(=O)Nc3cc(C(=O)N(C)C)ccc32)c2ccccc2)c1	558
CNC(=O)[C@H]1O[C@@H](n2cnc3c(NCc4cccc(I)c4)nc(Cl)nc32)[C@H](O)[C@@H]1O	366
CCOC(=O)c1ncn2c1CN(C)C(=O)c1cc(F)ccc1-2	532
O=C(O)CCCCC(CCSCc1ccccc1)SCc1ccccc1 (centres undefined)	589
CSC1=CC(=CC=C1)NC2=NC3=C(C=N2)/C=C(C(=O)N3C)/C4=C(Cl)C=CC=C4Cl	495
C/C=C(/C(=C/C)c1ccc(O)cc1)c1ccc(O)cc1	366

Test system: CU-ACC1
Assay: as above
Conditions: 48 h
How it was run: as §1

SMILES	area under concentration-response curve
Cc1ccc(NC(=O)c2ccc(CN3CC[C@H](N(C)C)C3)c(C(F)(F)F)c2)cc1Nc1nccc(-c2cncnc2)n1	549
Cc1ccc(-c2ncc(Cl)cc2-c2ccc([S+](C)(=O)[O-])cc2)cn1	366
NC\1=N\C(=O)N(\C=C1)[C@H]\2[C@H](O)[C@H](O)C(=C2F)\CO	336
CC[C@H]1OC(=O)[C@H](C)[C@@H](O[C@H]2C[C@@](C)(OC)[C@@H](O)[C@H](C)O2)[C@H](C)[C@@H](O[C@@H]2O[C@H](C)C[C@H](N(C)C)[C@H]2O)[C@](C)(O)C[C@@H](C)CN(C)[C@H](C)[C@@H](O)[C@]1(C)O	310
O=C(/C=C/N1C[C@H]2C[C@@H]1CN2c1ccccn1)c1ccccc1O	306
COc1ccc(Cc2ccc(NC(N)=O)cc2)cc1-c1cccc(Cl)c1	480
O=[S+]([O-])(O)c1ccc2cc(/N=N/c3cc([S+](=O)([O-])O)c4cccnc4c3O)ccc2c1	500
CCCCN(CCCC)C(=O)CN1C[C@H](c2ccc3c(c2)OCO3)[C@@H](C(=O)O)[C@@H]1c1ccc(OC)cc1	460
COc1cc2c(Oc3ccc4[nH]c(C)cc4c3F)ccnc2cc1OCC1(N)CC1	534
CO[C@@]12[C@H](COC(N)=O)C/3=C(N1C[C@@H]4N[C@H]24)/C(=O)/C(=C(N)\C3=O)C	378
Cc1cc(C)cc(NC(=O)Cc2ccc(OC(C)(C)C(=O)O)cc2)c1	504
COc1cccc(OCCCN)c1-c1cc(Nc2cnc(C#N)cn2)n[nH]1	347
CCCCCNC(=O)N1CCC(CN(Cc2ccc(Cl)cc2)Cc2ccc([N+](=O)[O-])s2)C1 (centres undefined)	509
NC(=O)c1cccc2cn(-c3ccc([C@@H]4CCCNC4)cc3)nc12	444
O=C(O)Cc1cccc(OCCCN(Cc2cccc(C(F)(F)F)c2Cl)CC(c2ccccc2)c2ccccc2)c1	535
O=C(O)C[C@H]1CCc2c1[nH]c1ccc(OCc3ccc(C4CCCC4)c(C(F)(F)F)c3)cc21	506
C[C@@H]1CCN(C(=O)CC#N)C[C@@H]1N(C)c1ncnc2[nH]ccc12	305
CCc1c(O)cc(O)c(C(=O)c2ccc(OCCN3CCOCC3)c(OC)c2)c1CC(=O)N(CCOC)CCOC	216

SMILES	area under concentration-response curve
C[C@]12CC[C@H]3[C@@H](CC(=C)\C4=C\C(=O)\C=C/[C@]34C)[C@@H]1CCC2=O	320
FC1=CC=C(CN2\C=C/C=C(/C(=O)N[C@@H](COC3=CC4=C(NC(=O)N4)C=C3)C5=CC=CC=C5)C2=O)C=C1F	546
CCOC(=O)\C1=C(/C)N\C2=C(C1C3=CC=C(C=C3)C4=CC=CC=C4)\C(=O)CC(C)(C)C2 (centres undefined)	552
CCCCCCCN(CC)CCCC(O)c1ccc(N[S+](C)(=O)[O-])cc1 (centres undefined)	398
CCc1cc2c(cc1N1CCC(N3CCOCC3)CC1)C(C)(C)c1[nH]c3cc(C#N)ccc3c1C2=O	416
Cc1ncc(Cl)cc1NCc1ccc(C(=O)NC(CC2CCCC2)C(=O)NC2CC2)s1 (centres undefined)	467
O=C(NCCCCN1CCOCC1)c1cc2ccccc2o1	461
CC1(C)CCC2(CC1)N[C@@H](C(=O)N[C@@H]1CC[C@@H](C(N)=O)OC1)[C@H](c1ccnc(Cl)c1F)[C@]21C(=O)Nc2cc(Cl)ccc21	501
CC(=O)c1c(O)c(C)c(O)c(Cc2c(O)c3c(c(C(=O)/C=C/c4ccccc4)c2O)OC(C)(C)C=C3)c1O	323
Clc1ccc(COC(Cn2ccnc2)c2ccc(Cl)cc2Cl)cc1 (centres undefined)	433
O=C(O)CCCc1ccc(N(CCCl)CCCl)cc1	300
COc1ccc([S+](=O)([O-])Nc2cc(-c3c(O)ccc4ccccc34)c(O)c3ccccc23)cc1	482
NC(=O)c1c(OCc2c(F)cc(Br)cc2F)nsc1NC(=O)NCCCCN1CCCC1	395
COc1ccc2cc(-c3[nH]c(-c4ccc([S+](C)[O-])cc4)nc3-c3ccncc3)ccc2c1 (centres undefined)	472
OC[C@H]1O[C@H]([C@@H](F)[C@@H]1O)N2\C=C/C(=O)NC2=O	370
OCCN(CCO)c1nc(N2CCCCC2)c2nc(N(CCO)CCO)nc(N3CCCCC3)c2n1	478
CCOC(=O)c1ccc(C#Cc2ccc3c(c2)C(C)(C)CCS3)nc1	505
